# In US6440903B1, “Substituted 2,4-diamino-1,3,5-triazines as herbicides” (Bayer Aktiengesellschaft, priority 1996, dated 2002):
# How the values were obtained:
# [1] = test system: weeds; test: Pre-emergence test (summary in text); type: in vivo; settings: result in words
# Experimental: Solvent: 5 parts by weight of acetone
# Emulsifier: 1 part by weight of alkylaryl polyglycol ether
# To produce a suitable preparation of active compound, 1 part by weight of active compound is mixed with the stated amount of solvent, the stated amount of emulsifier is added and the concentrate is diluted with water to the desired concentration.
# Seeds of the test plants are sown in normal soil. After about 24 hours, the soil is watered with the preparation of active compound. The amount of water per unit area is advantageously kept constant. The concentration of active compound in the preparation is immaterial, only the application rate of active compound per unit area matters.
# After three weeks, the degree of damage to the plants is scored visually in % damage in comparison to the development of the untreated control.
# 0%=no effect (like untreated control)
# [2] = test system: Amaranthus; test: Post-emergence test; type: in vivo; settings: greenhouse, scored after three weeks; for pest or weed control at 1000 g/ha / % damage, Amaranthus: 1000 g of ai./ha
# Experimental: (§1) Post-emergence Test Solvent: 5 parts by weight of acetone Emulsifier: 1 part by weight of alkylaryl polyglycol ether To produce a suitable preparation of active compound, 1 part by weight of active compound is mixed with the stated amount of solvent, the stated amount of emulsifier is added and the concentrate is diluted with water to the desired concentration. Test plants which have a height of 5-15 cm are sprayed with the preparation of active compound such that the particular amounts of active compounds desired are applied per unit area. The concentration of the spray liquor is chosen so that the particular amounts of active compound desired are applied in 1000 l of water/ha. After three weeks, the degree of damage to the plants is scored visually in % damage in comparison to the untreated control. The Figures Denote: 0%=no effect (like untreated control) 100%=total destruction
# [3] = test system: Alopecurus; test: Post-emergence test; type: in vivo; settings: greenhouse, 1000 g of ai./ha, scored after three weeks
# Experimental: as §1
# [4] = test system: Maize; test: Post-emergence test; type: in vivo; settings: greenhouse, 1000 g of ai./ha, scored after three weeks
# Experimental: as §1
# [5] = test system: Setaria; test: Post-emergence test; type: in vivo; settings: greenhouse, scored after three weeks; for pest or weed control at 1000 g/ha / % damage, Setaria: 1000 g of ai./ha
# Experimental: as §1
# [6] = test system: Sinapis; test: Post-emergence test; type: in vivo; settings: greenhouse, 1000 g of ai./ha, scored after three weeks
# Experimental: as §1
# [7] = test system: Abutilon; test: Post-emergence test; type: in vivo; settings: greenhouse, 1000 g of ai./ha, scored after three weeks
# Experimental: as §1
# [8] = test system: Avena fatua; test: Post-emergence test; type: in vivo; settings: greenhouse, 1000 g of ai./ha, scored after three weeks
# Experimental: as §1
# [9] = test system: Xanthium; test: Post-emergence test; type: in vivo; settings: greenhouse, 1000 g of ai./ha, scored after three weeks
# Experimental: as §1
# [10] = test system: Galium; test: Post-emergence test; type: in vivo; settings: greenhouse, scored after three weeks
# Experimental: as §1
# [11] = test system: Amaranthus; test: Pre-emergence test; type: in vivo; settings: greenhouse, scored after three weeks
# Experimental: (§2) Pre-emergence Test Solvent: 5 parts by weight of acetone Emulsifier: 1 part by weight of alkylaryl polyglycol ether To produce a suitable preparation of active compound, 1 part by weight of active compound is mixed with the stated amount of solvent, the stated amount of emulsifier is added and the concentrate is diluted with water to the desired concentration. Seeds of the test plants are sown in normal soil. After about 24 hours, the soil is watered with the preparation of active compound. The amount of water per unit area is advantageously kept constant. The concentration of active compound in the preparation is immaterial, only the application rate of active compound per unit area matters. After three weeks, the degree of damage to the plants is scored visually in % damage in comparison to the development of the untreated control. The figures denote: 0%=no effect (like untreated control) 100%=total destruction
# [12] = test system: Cotton; test: Pre-emergence test; type: in vivo; settings: greenhouse, scored after three weeks
# Experimental: as §2
# [13] = test system: Digitaria; test: Pre-emergence test; type: in vivo; settings: greenhouse, scored after three weeks
# Experimental: as §2
# [14] = test system: Wheat; test: Pre-emergence test; type: in vivo; settings: greenhouse, scored after three weeks
# Experimental: as §2
# [15] = test system: Polygonum; test: Pre-emergence test; type: in vivo; settings: greenhouse, 500 g of ai./ha, scored after three weeks
# Experimental: as §2
# [16] = test system: Veronica; test: Pre-emergence test; type: in vivo; settings: greenhouse, scored after three weeks
# Experimental: as §2
# [17] = test system: Echinochloa; test: Pre-emergence test; type: in vivo; settings: greenhouse, scored after three weeks
# Experimental: as §2
# [18] = test system: Solanum; test: Pre-emergence test; type: in vivo; settings: greenhouse, 1000 g of ai./ha, scored after three weeks
# Experimental: as §2
# [19] = Amaranthus, 504 h, read-out: % damage, Amaranthus
# [20] = Setaria, 504 h, read-out: % damage, Setaria
smiles,measurement,setting,value
CC(Nc1nc(N)nc(C(Cl)Cl)n1)c1ccc(Cl)cc1 (stereo not shown) [Example 149],melting point,,152 °C
same,activity against weeds,[1],strong activity
CC(Nc1nc(N)nc(Cl)n1)c1ccc(Cl)cc1 (stereo not shown) [drawing 106],pest or weed control at 1000 g/ha,[2]; [19],100%
same,"% damage, Alopecurus",[3],80%
same,"% damage, Maize",[4],20%
same,pest or weed control at 1000 g/ha,[5]; [20],90%
CC(Nc1nc(N)nc(Cl)n1)c1ccc(Cl)cc1 (stereo not shown) [drawing 107],"% damage, Amaranthus",[2],100%
same,"% damage, Alopecurus",[3],100%
same,"% damage, Sinapis",[6],100%
same,"% damage, Abutilon",[7],100%
same,"% damage, Setaria",[5],100%
same,"% damage, Avena fatua",[8],100%
CC(Nc1nc(N)nc(C(C)(C)F)n1)c1ccc(Cl)cc1 (stereo not shown) [drawing 112],"% damage, Amaranthus",[2],100%
same,"% damage, Sinapis",[6],100%
same,"% damage, Xanthium",[9],100%
same,"% damage, Abutilon",[7],100%
same,"% damage, Setaria",[5],100%
same,"% damage, Avena fatua",[8],100%
same,"% damage, Galium",[10]; 1000 g of ai./ha,100%
CC(=O)Nc1nc(NC(C)c2ccc(Cl)cc2)nc(C(C)(Cl)Cl)n1 (stereo not shown) [Example 160],melting point,,118 °C
same,activity against weeds,[1],strong activity
CC(=O)Nc1nc(NC(C)c2ccc(Cl)cc2)nc(C(Cl)Cl)n1 (stereo not shown) [drawing 148],pest or weed control at 1000 g/ha,[2]; [19],100%
same,pest or weed control at 1000 g/ha,[5]; [20],100%
same,"% damage, Avena fatua",[8],70%
same,"% damage, Galium",[10]; 1000 g of ai./ha,70%
CC(=O)Nc1nc(NC(C)c2ccc(Cl)cc2)nc(C(F)C(F)(F)F)n1 (stereo not shown) [drawing 97],"% damage, Amaranthus",[11]; 500 g of ai./ha,100%
same,"% damage, Cotton",[12]; 500 g of ai./ha,0%
same,"% damage, Digitaria",[13]; 500 g of ai./ha,80%
same,"% damage, Wheat",[14]; 500 g of ai./ha,0%
same,"% damage, Polygonum",[15],100%
same,"% damage, Veronica",[16]; 500 g of ai./ha,100%
same,"% damage, Echinochloa",[17]; 500 g of ai./ha,95%
COSc1ccc(C(C)Nc2nc(NC(C)=O)nc(C(Cl)Cl)n2)cc1 (stereo not shown),pest or weed control at 500 g/ha,"[2]; Amaranthus, 504 h, 500 g of ai./ha, read-out: % damage, Amaranthus",100%
same,pest or weed control at 500 g/ha,"[5]; Setaria, 504 h, 500 g of ai./ha, read-out: % damage, Setaria",90%
same,"% damage, Galium",[10]; 500 g of ai./ha,100%
CC(Nc1nc(N)nc(C(F)(F)F)n1)c1ccc(Cl)cc1 (stereo not shown) [drawing 111],"% damage, Amaranthus",[2],100%
same,"% damage, Sinapis",[6],100%
same,"% damage, Xanthium",[9],100%
same,"% damage, Abutilon",[7],100%
same,"% damage, Setaria",[5],100%
same,"% damage, Avena fatua",[8],70%
same,"% damage, Galium",[10]; 1000 g of ai./ha,100%
CC(Nc1nc(N)nc(C(C)(Cl)Cl)n1)c1ccc(Cl)cc1 (stereo not shown) [drawing 99],"% damage, Amaranthus",[11]; 1000 g of ai./ha,100%
same,"% damage, Cotton",[12]; 1000 g of ai./ha,0%
same,"% damage, Digitaria",[13]; 1000 g of ai./ha,100%
same,"% damage, Wheat",[14]; 1000 g of ai./ha,0%
same,"% damage, Solanum",[18],100%
same,"% damage, Veronica",[16]; 1000 g of ai./ha,100%
same,"% damage, Echinochloa",[17]; 1000 g of ai./ha,95%
CC(Nc1nc(N)nc(C(F)(F)F)n1)c1ccc(Cl)cc1 (stereo not shown) [drawing 109],pest or weed control at 1000 g/ha,[2]; [19],100%
same,"% damage, Alopecurus",[3],100%
same,"% damage, Sinapis",[6],100%
same,"% damage, Abutilon",[7],100%
same,pest or weed control at 1000 g/ha,[5]; [20],100%
same,"% damage, Avena fatua",[8],100%
COc1ccc(C(C)Nc2nc(NC(C)=O)nc(C(F)(F)F)n2)cc1 (stereo not shown) [drawing 149],pest or weed control at 1000 g/ha,[2]; [19],100%
same,"% damage, Alopecurus",[3],100%
same,"% damage, Xanthium",[9],100%
same,"% damage, Abutilon",[7],100%
same,pest or weed control at 1000 g/ha,[5]; [20],100%
same,"% damage, Galium",[10]; 1000 g of ai./ha,100%
